The record followed here is US8247404B2, “Derivatives of 2-oxoalkyl-1-piperazin-2-one, preparation method thereof and therapeutic use of same” (Sanofi, priority 2008, dated 2012).

Each structure is given as a SMILES string. Where a name gives a salt, the structure may show the parent alone.

The test system of data set [1] is human neuroblastoma strains SH-SY-5Y and SK-N-BE Bep 75. The data set can be described thus: Measurement of apoptosis (NGF-induced, cell death detection ELISA). Type of data set: cell-based. The following applies: SH-SY5Y, NGF 10 ng/ml, cell strain not given, read-out: IC50, inhibitory activity on NGF-induced apoptosis. The protocol:
The SH-SY-5Y strain (human neuroblastoma) is cultured conventionally in a DMEM culture medium (Dulbecco's Modified Eagle's Medium) (Gibco BRL, France) containing FCS (5%) (foetal calf serum) (Boehringer Mannheim, Germany), sodium pyruvate (1 mM) and glutamine (4 mM) in culture flasks coated with collagen (Becton Dickinson, France).
(§1) The SK-N-BE parent strain (human neuroblastoma) and the Bep 75 clone, stably expressing the whole form of the human p75^NTRreceptor (SK-N-BE Bep 75) are cultured conventionally in a RPMI culture medium containing FCS (5%), sodium pyruvate (1 mM) and glutamine (4 mM). For the SK-N-BE Bep 75 cells, hygromycin (200 μl/20 ml of medium) is added as selection agent.
The cells (human neuroblastoma strains SH-SY-5Y and SK-N-BE Bep 75) are placed in 35 mm diameter Petri dishes (Biocoat collagen I), (10^5cells/well) in an appropriate culture medium containing 5% of FCS for 24 h. […] The degrees of apoptosis are measured 48 hours after the treatments in the case of the SH-SY-5Y strain, and 24 hours after the treatments in the case of the SK-N-BE Bep 75 strain, by quantification of the DNA fragment-associated cytoplasmic histones (cell death detection ELISA, Boehringer Mannheim, Germany). The degrees of apoptosis are expressed as amount of oligonucleosomes/10^5cells. […]
A general note: In an ELISA, binding on a coated surface is turned into a signal by an enzyme label.

Data set [2] addresses T1, p75NTR receptor (Homo sapiens, UniProt P08138).
T1 sequence (P08138 29-427): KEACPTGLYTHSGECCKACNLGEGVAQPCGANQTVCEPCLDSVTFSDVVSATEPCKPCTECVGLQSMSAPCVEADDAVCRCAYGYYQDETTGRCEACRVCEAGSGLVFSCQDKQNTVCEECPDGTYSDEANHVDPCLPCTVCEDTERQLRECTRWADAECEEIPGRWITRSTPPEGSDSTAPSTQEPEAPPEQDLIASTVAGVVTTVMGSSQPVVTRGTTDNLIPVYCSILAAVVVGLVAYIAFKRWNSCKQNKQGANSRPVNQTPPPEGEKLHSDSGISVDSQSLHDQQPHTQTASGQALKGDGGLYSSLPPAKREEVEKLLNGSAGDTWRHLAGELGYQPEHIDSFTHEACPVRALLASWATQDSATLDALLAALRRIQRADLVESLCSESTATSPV
In words: Binding of 125I NGF to the p75NTR receptor (competition, SK-N-BE Bep 75 cell suspension). Also noted: the Bep 75 clone, stably expressing the whole form of the human p75^NTRreceptor; expressed in transfected cells; host or cells: SK-N-BE Bep 75 (human neuroblastoma clone, hygromycin selection). The conditions noted are these: SK-N-BE Bep 75 cells; 125I NGF 0.3 nM. The protocol:
as §1
Study of the binding of the ^125I NGF to the p75^NTRreceptor
The NGF binding study (nerve grown factor radiolabelled with iodine-125, Amersham—2000 Ci/mmol) is carried out on a cell suspension of the SK-N-BE Bep 75 strain in accordance with the method described by Weskamp (Neuron, 1991, 6, 649-663). The nonspecific binding is determined by measuring the total binding after one hour of pre-incubation with the cells at 37° C. in the presence of non-radiolabelled NGF (1 μM). The specific binding is calculated by the difference between the total binding measurement and the non-specific binding measurement. The competition experiments are carried out using an iodinated NGF (^125I NGF) concentration of 0.3 nM.

In data set [3] the target is T1, p75NTR receptor. The data set can be described thus: Dimerization of the p75NTR receptor independently of its ligand (soluble p75NTR-alkaline phosphatase binding to SK-N-BE Bep 75 cells). Also noted: the Bep 75 clone, stably expressing the whole form of the human p75^NTRreceptor; a soluble form of the p75^NTRreceptor (extracellular part of the receptor); expressed in transfected cells; host or cells: SK-N-BE Bep 75 cells (membrane receptor); transiently transfected HEK293 cells (secreted soluble p75NTR-alkaline phosphatase, used as culture supernatant). The conditions noted are these: soluble p75NTR-alkaline phosphatase 10 nM, 1 h preincubation at 37° C. The protocol:
as §1
Study of the dimerization of the p75^NTRreceptor independently of its ligand
The p75^NTRreceptor dimerization study is carried out on a cell suspension of the SK-N-BE Bep 75 strain. The cells (2.5 10^4cells/well) are placed in wells (96-well plate) for 24 h, and then preincubated for 1 h at 37° C. in the presence or absence of the compounds according to the invention. Supernatant is then added, this supernatant being derived from the culture of HEK293 human cells of renal origin expressing, after 48 h of transfection, and secreting a soluble form of the p75^NTRreceptor (extracellular part of the receptor) coupled to an alkaline phosphatase, at the final concentration of 10 nM. The quantification of the specific binding of the soluble p75^NTRreceptor to the receptor present on SK-N-BE Bep 75 cells is determined by measuring the alkaline phosphatase enzymatic activity after incubation of the cells for 1 hour at 37° C. in the presence of the supernatant. After filtration and transfer of the filters into 24-well plates, the alkaline phosphatase activity is determined by adding CDP-Star chemiluminescent substrate (ready-to-use, Roche).

Turning to `O=C(CN1CCN(c2ccc(C(F)(F)F)cn2)C(=O)C1)N1CC=C(c2ccc(Cl)c(C(F)(F)F)c2)CC1` (as salt: HCl) [Compound 1, 4-{2-[4-(4-chloro-3-trifluoromethylphenyl)-3,6-dihydro-2H-pyridin-1-yl]-2-oxoethyl}-1-(5-trifluoromethylpyridin-2-yl)piperazin-2-one], the melting point – broadly, the temperature of the solid-liquid transition – is 210 to 211 °C.

For `Cc1ccc(N2CCN(CC(=O)N3CC=C(c4ccc(Cl)c(C(F)(F)F)c4)CC3)CC2=O)nc1` (as salt: HCl) [Compound 2, 4-{2-[4-(4-chloro-3-trifluoromethylphenyl)-3,6-dihydro-2H-pyridin-1-yl]-2-oxoethyl}-1-(5-methylpyridin-2-yl)piperazin-2-one], the melting point is 236 to 239 °C.

In turn, `O=C(CN1CCN(c2ccccn2)C(=O)C1)N1CC=C(c2ccc(Cl)c(C(F)(F)F)c2)CC1` (as salt: HCl) [Compound 5, 4-{2-[4-(4-chloro-3-trifluoromethylphenyl)-3,6-dihydro-2H-pyridin-1-yl]-2-oxoethyl}-1-pyridin-2-ylpiperazin-2-one] gave a melting point of 160 to 163 °C.

On to `O=C(CN1CCN(c2ccc(C(F)(F)F)cn2)C(=O)C1)N1CC=C(c2ccc(Cl)c(C(F)(F)F)c2)CC1` [Compound 1, 4-{2-[4-(4-chloro-3-trifluoromethylphenyl)-3,6-dihydro-2H-pyridin-1-yl]-2-oxoethyl}-1-(5-trifluoromethylpyridin-2-yl)piperazin-2-one], for which the half-inhibitory concentration (IC50) (usually the concentration that gives 50% inhibition) in data set [1] turned out to be 1.61 nM; on p75NTR receptor [2], 5.2 nM; at p75NTR receptor [3], 1.34 nM.

In turn, `Cc1ccc(N2CCN(CC(=O)N3CC=C(c4ccc(Cl)c(C(F)(F)F)c4)CC3)CC2=O)nc1` [Compound 2, 4-{2-[4-(4-chloro-3-trifluoromethylphenyl)-3,6-dihydro-2H-pyridin-1-yl]-2-oxoethyl}-1-(5-methylpyridin-2-yl)piperazin-2-one] gave an IC50 at p75NTR receptor [3] of 3.88 nM.

In turn, `O=C(CN1CCN(c2ccc(C(F)(F)F)cn2)C(=O)C1)N1CC=C(c2ccc(Cl)cc2)CC1` [Compound 3, 4-{2-[4-(4-chlorophenyl)-3,6-dihydro-2H-pyridin-1-yl]-2-oxoethyl}-1-(5-trifluoromethylpyridin-2-yl)piperazin-2-one] yielded a melting point of 141 to 143 °C. On p75NTR receptor [2], the IC50 turned out to be 0.1 nM. The molecule also came in with a half-maximal inhibitory concentration (IC50) at p75NTR receptor [3] of 0.11 nM.

`O=C(CN1CCN(c2ccccn2)C(=O)C1)N1CC=C(c2ccc(Cl)c(C(F)(F)F)c2)CC1` [Compound 5, 4-{2-[4-(4-chloro-3-trifluoromethylphenyl)-3,6-dihydro-2H-pyridin-1-yl]-2-oxoethyl}-1-pyridin-2-ylpiperazin-2-one]: the IC50 in data set [1] was determined as 52 nM.
